Test results published in ChEMBL document CHEMBL3751730, “Synthesis and in vitro antitumor evaluation of dihydroartemisinin-cinnamic acid ester derivatives” (Eur J Med Chem, 2016).
The source made the active and inactive calls. The rule behind the calls is not given here.

Legend:
A549 [1] = assay: Induction of apoptosis in human A549 cells assessed as early apoptotic cells at 30 uM after 48 hrs by Annexin V-FITC/propidium iodide staining based flow cytrometric analysis (reference value: 0.63%); assay type: functional
A549 [2] = assay: Induction of apoptosis in human A549 cells after 48 hrs by Annexin V-FITC/propidium iodide staining based flow cytometric analysis; assay type: functional, cell-based
[3] = Induction of apoptosis in human L02 cells assessed as reactive oxygen species formation at 10 uM after 48 hrs by DCFH-DA staining based fluorescence microscopic analysis; assay type: cell-based; conditions: l02, 48 h
[4] = Induction of apoptosis in human L02 cells assessed as reactive oxygen species formation at 30 uM after 48 hrs by DCFH-DA staining based fluorescence microscopic analysis; assay type: cell-based; conditions: l02, 48 h
A549 [5] = assay: Induction of apoptosis in human A549 cells assessed as reactive oxygen species formation after 48 hrs by DCFH-DA staining based fluorescence microscopic analysis; assay type: functional, cell-based
A549 [6] = assay: Induction of apoptosis in human A549 cells assessed as reactive oxygen species formation at 30 uM by DCFH-DA staining based FLIPR assay; assay type: functional, cell-based; conditions: TDE = time-dependent effect
[7] = Induction of apoptosis in human L02 cells assessed as reactive oxygen species formation at 30 uM measured for 20 hrs by DCFH-DA staining based FLIPR assay; assay type: cell-based; conditions: l02, 20 h
A549 [8] = assay: Induction of apoptosis in human A549 cells assessed as cell viability at 3 to 30 uM after 48 hrs by MTT assay in presence of 5 mM NAC; assay type: functional, cell-based
A549 [9] = assay: Induction of apoptosis in human A549 cells assessed as early apoptotic cells at 30 uM after 48 hrs by Annexin V/propidium iodide staining based flow cytrometric analysis in presence of 5 mM NAC (reference value: 0.63%); assay type: functional
A549 [10] = assay: Induction of apoptosis in human A549 cells assessed as early apoptotic cells at 30 uM after 48 hrs by Annexin V/propidium iodide staining based flow cytrometric analysis in absence of 5 mM NAC (reference value: 0.63%); assay type: functional
A549 [11] = assay: Induction of reactive oxygen species generation in human A549 cells at 30 uM measured for 20 hrs by DCFH-DA staining based fluorescence assay in presence of 3 uM DFO; assay type: functional, cell-based
A549 [12] = assay: Cytotoxicity against human A549 cells assessed as cell viability at 3 to 30 uM after 48 hrs by MTT assay in presence of 3 uM DFO; assay type: functional, cell-based
A549 [13] = assay: Induction of apoptosis in human A549 cells assessed as early apoptotic cells at 30 uM after 48 hrs by Annexin V/propidium iodide staining based flow cytometric analysis in presence of 3 uM DFO (reference value: 0.63%); assay type: functional
A549 [14] = assay: Induction of apoptosis in human A549 cells assessed as early apoptotic cells at 30 uM after 48 hrs by Annexin V/propidium iodide staining based flow cytometric analysis in the absence of 3 uM DFO (reference value: 0.63%); assay type: functional
A549 [15] = assay: Antiproliferative activity against human A549 cells at 0.20 uM after 72 hrs by MTT assay; assay type: functional, cell-based
[16] = Antiproliferative activity against human PC3 cells after 72 hrs by MTT assay; assay type: functional, cell-based; conditions: PC-3, 72 h
[17] = Antiproliferative activity against human SGC7901 cells after 72 hrs by MTT assay; assay type: functional, cell-based; conditions: SGC-7901, 72 h
A549 [18] = assay: Antiproliferative activity against human A549 cells after 72 hrs by MTT assay; assay type: functional, cell-based; conditions: A549, 72 h
[19] = Antiproliferative activity against human MDA-MB-435S cells after 72 hrs by MTT assay; assay type: functional, cell-based
[20] = Cytotoxicity against human L02 cells after 72 hrs by MTT assay; assay type: cell-based; conditions: L02, 72 h
[21] = Selectivity index, ratio of IC50 for human L02 cells to IC50 for human A549 cells; assay type: functional
A549 [22] = assay: Induction of apoptosis in human A549 cells assessed as nuclei blebbing at 3 uM after 48 hrs by Hoechst 33258 staining based fluorescence microscopic analysis; assay type: functional, cell-based
A549 [23] = assay: Induction of apoptosis in human A549 cells assessed as nuclei blebbing at 10 uM after 48 hrs by Hoechst 33258 staining based fluorescence microscopic analysis; assay type: functional, cell-based
A549 [24] = assay: Induction of apoptosis in human A549 cells assessed as nuclei blebbing at 30 uM after 48 hrs by Hoechst 33258 staining based fluorescence microscopic analysis; assay type: functional, cell-based
A549 [25] = assay: Induction of apoptosis in human A549 cells assessed as nuclear rounding at 3 uM after 48 hrs by Hoechst 33258 staining based fluorescence microscopic analysis; assay type: functional, cell-based
A549 [26] = assay: Induction of apoptosis in human A549 cells assessed as nuclear rounding at 10 uM after 48 hrs by Hoechst 33258 staining based fluorescence microscopic analysis; assay type: functional, cell-based
A549 [27] = assay: Induction of apoptosis in human A549 cells assessed as nuclear rounding at 30 uM after 48 hrs by Hoechst 33258 staining based fluorescence microscopic analysis; assay type: functional, cell-based
A549 [28] = assay: Induction of apoptosis in human A549 cells assessed as cell shrinkage at 3 uM after 48 hrs by Hoechst 33258 staining based fluorescence microscopic analysis; assay type: functional
A549 [29] = assay: Induction of apoptosis in human A549 cells assessed as cell shrinkage at 10 uM after 48 hrs by Hoechst 33258 staining based fluorescence microscopic analysis; assay type: functional
A549 [30] = assay: Induction of apoptosis in human A549 cells assessed as cell shrinkage at 30 uM after 48 hrs by Hoechst 33258 staining based fluorescence microscopic analysis; assay type: functional
A549 [31] = assay: Induction of apoptosis in human A549 cells assessed as early apoptotic cells at 3 uM after 48 hrs by Annexin V-FITC/propidium iodide staining based flow cytrometric analysis (reference value: 0.63%); assay type: functional
A549 [32] = assay: Induction of apoptosis in human A549 cells assessed as early apoptotic cells at 10 uM after 48 hrs by Annexin V-FITC/propidium iodide staining based flow cytrometric analysis (reference value: 0.63%); assay type: functional
[33] = Drug degradation at 2 to 4 mg at 210 to 220 degC by thermogravimetric analysis in the presence of nitrogen gas; assay type: physicochemical; conditions: in vivo; read-out: Drug degradation
[34] = Chemical stability of the compound at 2 to 4 mg at 25 to 300 degC by differential scanning […] analysis in the presence of nitrogen gas; assay type: physicochemical
A549 [35] = assay: Antiproliferative activity against human A549 cells at 0.20 uM after 72 hrs by MTT assay in presence of 0.40 uM 3,4-dimethoxycinnamic acid; assay type: functional, cell-based
A549 [36] = assay: Antiproliferative activity against human A549 cells at 0.40 uM after 72 hrs by MTT assay; assay type: functional, cell-based
A549 [37] = assay: Antiproliferative activity against human A549 cells at 0.40 uM after 72 hrs by MTT assay in presence of 0.20 uM 9alpha-DHA; assay type: functional, cell-based

For `COc1ccc(/C=C/C(=O)O[C@@H]2O[C@@H]3O[C@@]4(C)CC[C@H]5[C@H](C)[C@H](OC(=O)/C=C/c6ccc(OC)c(OC)c6)C[C@@H]([C@H]2C)[C@@]35OO4)cc1OC`, the Activity (A549 [1]) was 16.88%, the Activity (A549 [2]) was “Dose-dependent effect” and the Activity [3] was “Non-toxic”. For the same compound, the Activity [4] was “Non-toxic”, the Activity (A549 [5]) was “Dose-dependent effect” and the Activity (A549 [6]) was “tde”. For the same compound, the Activity [7] was “Non-toxic”, the Activity (A549 [8]) was “inactive” and the Activity (A549 [9]) was 4.71%. For the same compound, the Activity (A549 [10]) was 16.88%, the Activity (A549 [11]) was “inactive” and the Activity (A549 [12]) was “inactive”. The Activity (A549 [13]) was 2.17%, the Activity (A549 [14]) was 16.88% and the Activity (A549 [15]) was “Active”. It also gave an IC50 [16] of 22.7 µM, an IC50 [17] of 4.94 µM and an IC50 (A549 [18]) of 0.2 µM. For the same compound, the IC50 [19] was 6.23 µM, the IC50 [20] was 80.2 µM and the “Ratio IC50” value [21] was 401.25. The Activity (A549 [22]) was “Active”, the Activity (A549 [23]) was “Active” and the Activity (A549 [24]) was “Active”. The Activity (A549 [25]) was “Active”, the Activity (A549 [26]) was “Active” and the Activity (A549 [27]) was “Active”. The Activity (A549 [28]) was “Active”, the Activity (A549 [29]) was “Active” and the Activity (A549 [30]) was “Active”. It also gave an Activity (A549 [31]) of 4.33% and an Activity (A549 [32]) of 14.01%.
In the case of `COc1cc(/C=C/C(=O)O[C@@H]2O[C@@H]3O[C@@]4(C)CC[C@H]5[C@H](C)[C@H](OC(=O)/C=C/c6cc(OC)c(OC)c(OC)c6)C[C@@H]([C@H]2C)[C@@]35OO4)cc(OC)c1OC`, the degraded [33] is reported as 1%, the Stability [34] is reported as “Stable” and the IC50 [16] is reported as 17.2 µM. For the same compound, the IC50 [17] was 11.8 µM, the IC50 (A549 [18]) was 0.5 µM and the IC50 [19] was 5.33 µM. For the same compound, the IC50 [20] was 58.6 µM and the “Ratio IC50” value [21] was 117.3.
With `C[C@@H]1[C@H](O)C[C@H]2[C@@H](C)[C@@H](O)O[C@@H]3O[C@@]4(C)CC[C@@H]1[C@]32OO4` the Activity (A549 [15]) was “inactive”, the Activity (A549 [35]) was “inactive” and the IC50 [16] was greater than 100 µM. The IC50 [17] was greater than 100 µM, the IC50 (A549 [18]) was greater than 100 µM and the IC50 [19] was 57.8 µM.
For `COc1ccc(/C=C/C(=O)O)cc1OC`, the Activity (A549 [36]) was “inactive” and the Activity (A549 [37]) was “inactive”.
